Biological target: T1, Hhat (Homo sapiens, UniProt Q5VTY9)
T1 construct: Hhat-FLAG-His8 (C-terminal tags kept), stably expressed in HEK293a cells; DDM-solubilized membrane fraction P100(sol) enriched by Ni-NTA
Assay: microfluidic mobility shift assay, stopped
Type: biochemical

T1 sequence (Q5VTY9 whole entry): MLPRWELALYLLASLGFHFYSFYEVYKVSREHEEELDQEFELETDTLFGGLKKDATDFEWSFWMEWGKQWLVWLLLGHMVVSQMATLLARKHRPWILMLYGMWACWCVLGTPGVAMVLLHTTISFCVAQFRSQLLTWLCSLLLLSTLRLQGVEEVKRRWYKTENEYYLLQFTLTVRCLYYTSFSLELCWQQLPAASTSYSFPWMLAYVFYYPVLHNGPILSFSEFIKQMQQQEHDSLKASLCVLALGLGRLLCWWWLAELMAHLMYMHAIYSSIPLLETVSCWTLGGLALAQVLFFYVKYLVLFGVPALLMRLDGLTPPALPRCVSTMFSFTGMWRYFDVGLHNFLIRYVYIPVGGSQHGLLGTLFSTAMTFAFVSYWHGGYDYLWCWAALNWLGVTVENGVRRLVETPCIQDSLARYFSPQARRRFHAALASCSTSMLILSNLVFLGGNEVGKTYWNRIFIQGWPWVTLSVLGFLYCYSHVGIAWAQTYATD

SMILES: CCC(C)CNCC(=O)N1CCc2sccc2C1c1cccc(C)c1 (stereo not shown) [RUSKI-101]
- IC50: 8.32 ± 3.69 µM

Reference: PMC5453399, “Microfluidic Mobility Shift Assay for Real-Time Analysis of Peptide N-Palmitoylation” (Slas Discovery, 2017)
